Values joined by “and” are separate entries in the source; they are usually repeats but may differ in a detail not shown here. Equal values may be shown once. Inconclusive results and toxic doses are left out. Rule as the data show it: active = T/C of 150% or more; inactive = T/C below 125%.
System: L1210 leukemia ip in BDF1 mice, survival T/C
Assay: NCI In Vivo Anticancer Drug Screen. Data for tumor model L1210 Leukemia (intraperitoneal) in B6D2F1 (BDF1) mice
Conditions: endpoint: mean survival time, higher = longer survival
Method in brief: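 Tumor cells were implanted, animals were treated, and survival was followed. The result divides the treated measurement by the vehicle-control measurement.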

[1] = dose: 200.0 mg/kg/injection, schedule: Q04DX002 (ip), vehicle: Klucel (hydroxypropylcellulose) (HPC)
[2] = dose: 400.0 mg/kg/injection, schedule: Q04DX002 (ip), vehicle: Klucel (hydroxypropylcellulose) (HPC)
[3] = dose: 50.0 mg/kg/injection, schedule: Q01DX009 (ip), vehicle: Klucel (hydroxypropylcellulose) (HPC)
[4] = dose: 100.0 mg/kg/injection, schedule: Q01DX001 (ip), vehicle: saline
[5] = dose: 200.0 mg/kg/injection, schedule: Q01DX001 (ip), vehicle: saline
[6] = dose: 100.0 mg/kg/injection, schedule: Q01DX009 (ip), vehicle: Klucel (hydroxypropylcellulose) (HPC)
[7] = dose: 200.0 mg/kg/injection, schedule: Q01DX009 (ip), vehicle: Klucel (hydroxypropylcellulose) (HPC)
[8] = dose: 400.0 mg/kg/injection, schedule: Q01DX009 (ip), vehicle: Klucel (hydroxypropylcellulose) (HPC)
[9] = dose: 150.0 mg/kg/injection, schedule: Q01DX001 (ip), vehicle: saline
[10] = dose: 100.0 mg/kg/injection, schedule: Q04DX002 (ip), vehicle: Klucel (hydroxypropylcellulose) (HPC)
[11] = dose: 100.0 mg/kg/injection, schedule: Q01DX001 (ip), vehicle: carboxymethylcellulose (CMC)
[12] = dose: 200.0 mg/kg/injection, schedule: Q01DX001 (ip), vehicle: carboxymethylcellulose (CMC)
[13] = dose: 400.0 mg/kg/injection, schedule: Q01DX001 (ip), vehicle: carboxymethylcellulose (CMC)
[14] = dose: 100.0 mg/kg/injection, schedule: Q04DX003 (ip), vehicle: saline with Tween-80
[15] = dose: 200.0 mg/kg/injection, schedule: Q04DX003 (ip), vehicle: saline with Tween-80
[16] = dose: 100.0 mg/kg/injection, schedule: Q04DX003 (ip), vehicle: water
[17] = dose: 200.0 mg/kg/injection, schedule: Q04DX003 (ip), vehicle: water
[18] = dose: 400.0 mg/kg/injection, schedule: Q04DX003 (ip), vehicle: water

Measured: T/C

c1cc[c]([Pb]([c]2ccccc2)([c]2ccccc2)[n]2ccnc2)cc1
inactive: dose: 5.0 mg/kg/injection, schedule: Q01DX001 (ip), vehicle: other 106 % of control | dose: 10.0 mg/kg/injection, schedule: Q01DX001 (ip), vehicle: other 98 % of control

O=C1c2ccccc2C(=O)c2c1cccc2N1CCOCC1
inactive: [1] 98 % of control | [2] 112 % of control

CN1CCC(=C2c3ccccc3C(O)c3ccccc32)CC1 (stereo unspecified)
inactive: dose: 3.12 mg/kg/injection, schedule: Q01DX009 (ip), vehicle: Klucel (hydroxypropylcellulose) (HPC) 98 % of control | dose: 6.25 mg/kg/injection, schedule: Q01DX009 (ip), vehicle: Klucel (hydroxypropylcellulose) (HPC) 96 % of control | dose: 12.5 mg/kg/injection, schedule: Q01DX009 (ip), vehicle: Klucel (hydroxypropylcellulose) (HPC) 93 % of control | dose: 25.0 mg/kg/injection, schedule: Q04DX003 (ip), vehicle: Klucel (hydroxypropylcellulose) (HPC) 98 % of control | [3] 93 % of control | dose: 50.0 mg/kg/injection, schedule: Q04DX003 (ip), vehicle: Klucel (hydroxypropylcellulose) (HPC) 98 % of control

NC(=S)N/N=C/c1cccc2ccccc12
inactive: dose: 100.0 mg/kg/injection, schedule: Q04DX002 (ip), vehicle: gum acacia 91 % of control | dose: 200.0 mg/kg/injection, schedule: Q04DX002 (ip), vehicle: gum acacia 98 % of control | dose: 400.0 mg/kg/injection, schedule: Q04DX002 (ip), vehicle: gum acacia 117 % of control

CCOC1OC(CO)C(O)C(O)C1O (stereo unspecified)
inactive: [4] 102 % of control | [5] 98 % of control | dose: 400.0 mg/kg/injection, schedule: Q01DX001 (ip), vehicle: saline 109 % of control

Fc1c(F)c(F)c(Oc2c(F)c(F)[c]([Sn]([c]3c(F)c(F)c(Oc4c(F)c(F)c(F)c(F)c4F)c(F)c3F)([c]3c(F)c(F)c(Oc4c(F)c(F)c(F)c(F)c4F)c(F)c3F)[c]3c(F)c(F)c(Oc4c(F)c(F)c(F)c(F)c4F)c(F)c3F)c(F)c2F)c(F)c1F
inactive: [6] 104 % of control | dose: 100.0 mg/kg/injection, schedule: Q04DX003 (ip), vehicle: Klucel (hydroxypropylcellulose) (HPC) 103 % of control | [7] 105 % of control | dose: 200.0 mg/kg/injection, schedule: Q04DX003 (ip), vehicle: Klucel (hydroxypropylcellulose) (HPC) 102 % of control | [8] 104 % of control | dose: 400.0 mg/kg/injection, schedule: Q04DX003 (ip), vehicle: Klucel (hydroxypropylcellulose) (HPC) 102 % of control

O=C(NCC1CC1)Nc1cccc2ccccc12
inactive: dose: 100.0 mg/kg/injection, schedule: Q01DX009 (ip), vehicle: other 98 % of control | dose: 200.0 mg/kg/injection, schedule: Q01DX009 (ip), vehicle: other 89 % of control | dose: 400.0 mg/kg/injection, schedule: Q01DX009 (ip), vehicle: other 92 % of control

NNC(=O)c1ccccc1
inactive: dose: 12.5 mg/kg/injection, schedule: Q01DX009 (ip), vehicle: saline 100 % of control | dose: 25.0 mg/kg/injection, schedule: Q01DX009 (ip), vehicle: saline 97 % of control | dose: 50.0 mg/kg/injection, schedule: Q01DX001 (ip), vehicle: saline 90 % of control | dose: 50.0 mg/kg/injection, schedule: Q01DX009 (ip), vehicle: saline 111 % of control | dose: 50.0 mg/kg/injection, schedule: Q04DX003 (ip), vehicle: saline with Tween-80 97 % of control | [4] 108 % of control | dose: 100.0 mg/kg/injection, schedule: Q01DX009 (ip), vehicle: saline 100 % of control

C[N+](C)(C)CC(O)CCl (stereo unspecified)
inactive: [4] 95 % of control | [5] 102 % of control

CCC(=O)C1(c2cccc(O)c2)CCN(C)CC1
inactive: dose: 75.0 mg/kg/injection, schedule: Q01DX001 (ip), vehicle: saline 94 % of control | [9] 97 % of control

C[N+](C)(C)C1CS(=O)C1 (stereo unspecified)
inactive: dose: 12.5 mg/kg/injection, schedule: Q04DX003 (ip), vehicle: saline 96 % of control | dose: 25.0 mg/kg/injection, schedule: Q04DX003 (ip), vehicle: saline 112 % of control | dose: 50.0 mg/kg/injection, schedule: Q04DX003 (ip), vehicle: saline 87 % of control

O=C1CN=C(c2ccccc2)c2cc(Cl)ccc2N1
inactive: dose: 25.0 mg/kg/injection, schedule: Q01DX009 (ip), vehicle: Klucel (hydroxypropylcellulose) (HPC) 92 % of control | [3] 94 % of control | [6] 89 % of control | [10] 106 % of control | [7] 98 % of control | [1] 93 % of control | [2] 89 % of control

Nc1cccc2ccc3ccc4ccccc4c3c12
inactive: dose: 100.0 mg/kg/injection, schedule: Q01DX001 (ip), vehicle: Klucel (hydroxypropylcellulose) (HPC) 105 % of control | dose: 200.0 mg/kg/injection, schedule: Q01DX001 (ip), vehicle: Klucel (hydroxypropylcellulose) (HPC) 94 % of control | dose: 400.0 mg/kg/injection, schedule: Q01DX001 (ip), vehicle: Klucel (hydroxypropylcellulose) (HPC) 97 % of control

COc1cc2c(cc1OC)C(NC(C)C)CCCC2 (stereo unspecified)
inactive: [4] 98 % of control | [5] 95 % of control

Cc1c2cccc(Sc3ccc(F)cc3)c2c2c3c(cccc13)[S+](c1ccc(F)cc1)C2 (stereo unspecified)
inactive: dose: 12.5 mg/kg/injection, schedule: Q01DX001 (ip), vehicle: Klucel (hydroxypropylcellulose) (HPC) 100 % of control | dose: 25.0 mg/kg/injection, schedule: Q01DX001 (ip), vehicle: Klucel (hydroxypropylcellulose) (HPC) 94 % of control | dose: 50.0 mg/kg/injection, schedule: Q01DX001 (ip), vehicle: Klucel (hydroxypropylcellulose) (HPC) 90 % of control

CC(=O)OCC1OC(n2cnc3c(F)nc(F)nc32)C(OC(C)=O)C1OC(C)=O (stereo unspecified)
inactive: dose: 100.0 mg/kg/injection, schedule: Q01DX001 (sc), vehicle: olive oil, sesame oil, peanut oil 104 % of control | dose: 200.0 mg/kg/injection, schedule: Q01DX001 (sc), vehicle: olive oil, sesame oil, peanut oil 104 % of control | dose: 400.0 mg/kg/injection, schedule: Q01DX001 (sc), vehicle: olive oil, sesame oil, peanut oil 100 % of control

CC(=O)Nc1ccc2c(c1)-c1ccc(F)cc1C2
inactive: [11] 94 % of control | [12] 96 % of control | [13] 102 % of control

c1ccc2c(c1)ccc1[nH]c3c(c12)CCCC3
inactive: [11] 95 % of control | [12] 90 % of control | [13] 97 % of control

Cc1cc(=O)n(-c2ccccc2)n1C.[Cl-].[Cl-].[Cl-].[Cl-].[Pt+2]
inactive: [14] 97 % of control | [15] 103 % of control | dose: 400.0 mg/kg/injection, schedule: Q04DX003 (ip), vehicle: saline with Tween-80 105 % of control

O=C1CCC(=O)N1CC(O)COc1ccc(Cl)cc1 (stereo unspecified)
inactive: dose: 100.0 mg/kg/injection, schedule: Q01DX009 (ip), vehicle: saline with Tween-80 96 % of control | dose: 200.0 mg/kg/injection, schedule: Q01DX009 (ip), vehicle: saline with Tween-80 101 % of control | dose: 400.0 mg/kg/injection, schedule: Q01DX009 (ip), vehicle: saline with Tween-80 104 % of control

COc1ccc(CCNC(=O)Cc2cc(OCc3ccccc3)c(OC)cc2[N+](=O)[O-])cc1OC
inactive: [16] 90 % of control | dose: 200.0 mg/kg/injection, schedule: Q01DX001 (ip), vehicle: water 91 % of control | [17] 91 % of control | dose: 400.0 mg/kg/injection, schedule: Q01DX001 (ip), vehicle: water 96 % of control | [18] 91 % of control

O=C(CCl)N(c1ccccc1)c1ccccc1
inactive: dose: 25.0 mg/kg/injection, schedule: Q04DX002 (ip), vehicle: Klucel (hydroxypropylcellulose) (HPC) 101 % of control and 107 % of control | dose: 50.0 mg/kg/injection, schedule: Q04DX002 (ip), vehicle: Klucel (hydroxypropylcellulose) (HPC) 103 % of control | [10] 95 % of control and 92 % of control

Nc1cc2[nH]cnc2c(Br)n1
inactive: [16] 116 % of control | [17] 116 % of control | [18] 102 % of control

CCCOP(=O)(OCCC)C(OC(=O)C(C)(C)C)=C(C)C
inactive: [14] 92 % of control | [15] 96 % of control

CCOC(=O)c1ccc(NC(=O)Oc2ccc(SC)cc2)cc1
inactive: [6] 90 % of control | [7] 94 % of control | [8] 94 % of control

C=CCCC1(CCC(C)C)C(=O)NC(=O)NC1=O
inactive: [9] 116 % of control

Reference: PubChem BioAssay AID248 (DTP/NCI, 2004)
